From patent US20080031968A1, “Methods for increasing cellular energy expenditure” (priority 2005, published 2008)

What was measured:
KK-Ay mice [1] = test: In vivo VLDL TG production (Tyloxapol) in KK-Ay mice; set-up: species or system mouse; details: 1 week of CA feeding, chow and high-fat diet
BAT = test: cAMP levels in BAT of mice fed high fat diet with CA; type: in vivo, mouse; details: mice fed high fat diet with CA vs control mice
Description: (§1) An OGTT was performed in animals that were fasted overnight. Glucose was administered by gavage at a dose of 2 g/kg. An IPITT was done in 4 h fasted animals. Insulin was injected at a dose of 0.75 U/kg. Glucose quantification was done with the Maxi Kit Glucometer 4 (Bayer Diagnostic, Puteaux, France) or Glucose RTU (bioMérieux Inc., Marcy l'Etoile, France). Plasma insulin concentrations were measured using ELISA (Cristal Chem Inc., Downers Grove, Ill.). Nonesterified fatty acids, triglycerides, ketone bodies, BA and total cholesterol were determined by enzymatic assays (Roche, Mannheim, Germany). cAMP was measured using the cAMP-Screen system (Applied Biosystems, Bedford, Mass.).

mouse SREBP-1c promoter = test: SREBP-1c promoter luciferase reporter assay in McA-RH7777 cells; type: cell-based; details: McA-RH7777 rat hepatoma cells, LXRα transfection and/or LXR and RXR agonists
Description: The LXR response elements in pSREBP-1c324-Luc were mutated for promoter analysis using the Quick Change Site-Directed Mutagenesis Kit (Stratagene, La Jolla, Calif., USA).
The rat hepatoma cell line McA-RH7777 was obtained from ATCC (Manassas, Va., USA). […] Transfections were performed in 96-well plates using Lipofectamine 2000 (Invitrogen, Cergy Pontoise, France). Each well contained 64 ng luciferase reporter and 4 ng of β-galactosidase expression plasmid. We transfected 16 ng RXRα, 16 ng LXRα, 16 ng LRH-1, 32 ng SHP expression plasmids, or the corresponding empty expression vectors. After 6 hours of incubation with the DNA-lipofectamine complexes, the transfection medium was exchanged for medium with or without the indicated ligands. Ligands for LXR and RXR were dissolved in ethanol or DMSO and added to the cells in DMEM supplemented with 10% lipoprotein-deficient serum. To suppress SREBP-1c activation by processing, leading to feed-forward induction of SREBP-1c expression, the medium used for the SREBP-1c promoter study was also supplemented with 10 μg/ml cholesterol and 1 μg/ml 25-hydroxycholesterol. Luciferase measurements were normalized to β-galactosidase activity.

wildtype and D2-/- mice = test: Diet-induced obesity in D2-/- mice and littermate controls; type: in vivo, mouse
Description: (§2) Male C57BL/6J and KK-Ay mice, 6-7 weeks of age, were obtained from Charles River Laboratories France (l'Arbresle, France) and CLEA Japan Inc. (Tokyo, Japan), respectively. […] All mice were maintained in a temperature-controlled (23° C.) facility with a 12 h light/dark cycle and were given free access to food and water. The control and high-fat diet was obtained from UAR (Villemoison surOrge, France). […] GW4064 was suspended in peanut oil and mixed with the high fat diet at a concentration of 180 mg per kg of food. […] The mice were fasted 4 h before harvesting blood for subsequent blood measurements, and tissues for RNA isolation, lipid measurements and histology. Oxygen consumption was measured using the Oxymax apparatus (Columbus Instruments, Columbus, Ohio).
Next, we used mice with a targeted disruption of the D2 gene (D2−/− mice) and littermate controls in a diet-induced obesity study for 50 days.

[2] = test system: wild-type and LXRα/β-/- mice; test: CA diet in wild-type and LXRα/β-/- mice; type: in vivo, mouse; details: 0.5% CA for 3 days
Description: (§3) Male C57BL/6J, KK-Ay, and ob/ob (C57BL/6J background) mice, 6-10 weeks of age, were obtained from Elevage Janvier (Le Genest St. Isle, France), CLEA Japan Inc. (Tokyo, Japan), and The Jackson Laboratory (Bar Harbor, Me., USA), respectively. All mice were maintained in a temperature-controlled (23° C.) facility with a 12-hour light/dark cycle and were given free access to food and water. The study protocols were approved by the institutional review boards. The body weight and food intake were measured every second day. The control and high-fat diet was obtained from UAR (Villemoisson sur Orge, France). […] The mice were fasted 4 hours before harvesting blood for subsequent lipid measurements, and tissues for RNA isolation, lipid measurements, and histology.
To determine whether LXR is essential for the TG-lowering effect of bile acids, we used LXRα/LXRβ double-knockout mice ([…]).

KK-Ay mice [3] = test: Liver TG and cholesterol content and histology in KK-Ay mice; type: in vivo, mouse
Description: as §3
For measurement of liver TGs and cholesterol content, a liver was homogenized in chloroform/methanol (2:1 v/v) using a Polytron tissue grinder (Kinematica AG, Luzern, Switzerland). Lipid extracts were prepared by the classical Folch method. Extracts were dried under N2 flow and resuspended in isopropanol.

SHP+/+ and SHP-/- mice = test: FXR agonists in SHP+/+ and SHP-/- mice; type: in vivo, mouse; details: for hepatic expression of SREBP-1c, ME, CYP7A1 and ANGPTL3: 1-day treatment
Description: as §3

KK-Ay mice [4] = test: CA in KK-Ay mice, body weight, OGTT and IPITT; type: in vivo, mouse
Description: as §2, §1

BAT of C57BL/6J mice = test: BAT gene expression by microarray and Q-RT-PCR; type: in vivo, mouse
Description: For microarray analysis, RNA was isolated from BAT using the RNeasy mini kit (QIAGEN, Courtaboeuf, France). Equal amounts of RNA from mice in each group were pooled (n=3 or 4 mice) and used for cDNA synthesis. After second-strand cDNA synthesis (Life Technologies, Cergy Pontoise, France), in vitro transcription was performed with biotinylated UTP and CTP (Enzo Diagnostics, Farmingdale, N.Y.). Fragmented cRNA samples were hybridized to the Affymetrix MOE430A microarray. The raw data was analyzed using the Microarray Suite Software version 5.0 (MAS5.0, Affymetrix, Santa Clara, Calif.).

C57BL/6J mice [5] = test: Diet-induced obesity in C57BL/6J mice; type: in vivo, mouse
Description: as §2, §1
Pieces of mouse tissues were fixed in Bouin's solution, dehydrated in ethanol, embedded in paraffin, and cut at a thickness of 5 μm. Sections were deparaffinized, rehydrated, and stained with haematoxylin and eosin. Transmission electron microscopy was then performed.

KK-Ay and C57BL/6J mice = test: Tissue mRNA levels by quantitative RT-PCR after CA supplementation; type: in vivo, mouse
Description: as §3
Total RNA was extracted from frozen tissue samples or cells using the RNeasy kit (QIAGEN, Courtaboeuf, France). cDNA was synthesized from total RNA with the SuperScript First-Strand Synthesis System (Invitrogen) and random hexamer primers. The real-time PCR measurement of individual cDNAs was performed using SYBR green dye to measure duplex DNA formation with the LightCycler System (Roche Diagnostics, Meylan, France). The sequences of the primer sets used are available online at http://www-igbmc.ustrasbg.fr/Departments/Dep_V/Dep_VA/Publi/Paper.html.

C57BL/6J mice [6] = test: LXR agonist-induced lipogenesis in C57BL/6J mice with or without CA; type: in vivo, mouse
Description: as §3
Mice were gavaged with the LXR agonist T0901317 or vehicle, and the different diets were continued for one more day, after which the mice were sacrificed.

C57BL/6J mice [7] = test: Indirect calorimetry (Oxymax); type: in vivo, mouse
Description: as §2

humans = details: cited from earlier work
[8] = KK-Ay mice, CA added to normal chow diet
[9] = high fat diet supplemented with CA, histology
[10] = KK-Ay and C57BL/6J mice, 1 and 7 days CA in chow
[11] = CA coadministration with T0901317

SMILES: C[C@H](CCC(=O)O)[C@H]1CC[C@H]2[C@@H]3[C@H](O)C[C@@H]4C[C@H](O)CC[C@]4(C)[C@H]3C[C@H](O)[C@]12C [CA, cholic acid]
- liver VLDL production (KK-Ay mice [1]): significantly decreased
- cAMP levels in BAT (BAT): significantly elevated
- increase of SREBP-1c promoter activity (mouse SREBP-1c promoter): attenuated
- development of obesity (wildtype and D2-/- mice; D2-/- mice, CA added to high fat diet, 50 days): no effect
- diet induced obesity (wildtype and D2-/- mice; wildtype mice, CA added to high fat diet, 50 days): prevented diet induced obesity
- expression of PGC-1α in BAT (wildtype and D2-/- mice; wildtype mice, CA feeding): significantly induced
- decrease in serum TGs, SREBP-1c and ME ([2]; LXRα/β-/- mice): not observed
- SHP expression ([2]; wild-type and LXRα/β-/- animals): induced significantly
- serum TG ([2]; wild-type animals): decreased serum TG
- liver TGs content (KK-Ay mice [3]; CA 3 weeks, chow or high-fat diet): significantly lower
- hepatic cholesterol (KK-Ay mice [3]; CA 3 weeks, particularly high-fat diet): increased hepatic cholesterol
- neutral lipids in liver sections (Oil Red O) (KK-Ay mice [3]; high-fat diet with CA, 3 weeks): accumulated less neutral lipids
- serum TGs (SHP+/+ and SHP-/- mice; SHP+/+ mice, 0, 3 and 7 days): significantly lowered
- hepatic expression of SREBP-1c, ME, CYP7A1 and ANGPTL3 (SHP+/+ and SHP-/- mice; SHP+/+ mice): significantly reduced
- decrease in serum TGs (SHP+/+ and SHP-/- mice; SHP-/- mice): completely abolished
- hepatic expression of SREBP-1c, ME, CYP7A1 and ANGPTL3 (SHP+/+ and SHP-/- mice; SHP-/- mice): no decrease
- body weight (KK-Ay mice [4]; [8]): decreased body weight
- metabolic control (oral glucose tolerance test, intraperitoneal insulin tolerance test) (KK-Ay mice [4]; [8]): improved metabolic control
- insulin sensitivity (KK-Ay mice [4]; KK-Ay mouse): improve insulin sensitivity
- expression of PGC-1α, PGC-1β, UCP-1, UCP-3, ACO, mCPT-I and D2 in BAT (BAT of C57BL/6J mice; C57BL/6J mice fed 47 days, diet mixed with CA, Q-RT-PCR): significantly increased
- genes involved in control of energy expenditure incl. D2 in BAT (microarray) (BAT of C57BL/6J mice; high fat diet mixed with CA or CDCA for 9 days): upregulated
- glucose tolerance (C57BL/6J mice [5]; C57BL/6J mice with diet-induced obesity): improves glucose tolerance
- body weight gain (C57BL/6J mice [5]; chow diet supplemented with CA): no effect
- high fat-induced changes in adipose mass and morphology (C57BL/6J mice [5]; diet supplementation with CA): completely prevented
- weight gain (C57BL/6J mice [5]; high fat diet supplemented with 0.5% CA): reduced the weight gain
- adipocyte hypertrophy in WAT and BAT (C57BL/6J mice [5]; [9]): not observed
- liver steatosis (C57BL/6J mice [5]; [9]): reversed
- 120-days of diet-induced weight gain (C57BL/6J mice [5]; obese mice switched to high fat diet containing CA): reversed
- time to return to normal body weight (C57BL/6J mice [5]; obese mice switched to high fat diet containing CA (F-FA)): ≤ 30 days
- hepatic expression of MCAD and LCAD (KK-Ay and C57BL/6J mice; C57BL/6J mice, 1 and 7 days CA): significantly decreased
- expression of lipogenic genes in white adipose tissue (KK-Ay and C57BL/6J mice; CA treatment): none of the lipogenic genes were lowered
- hepatic expression of SHP (KK-Ay and C57BL/6J mice; CA treatment): robust induction
- hepatic expression of AceCS, ME and SCD-1 (KK-Ay and C57BL/6J mice; [10]): significantly reduced
- hepatic expression of LXRA, LRH-1, FXR and SREBP-2 (KK-Ay and C57BL/6J mice; [10]): No major changes
- hepatic expression of CPT-I, MCAD and LCAD (KK-Ay and C57BL/6J mice; KK-Ay mice, CA): no change
- SHP expression (C57BL/6J mice [6]; [11]): increased SHP expression
- SREBP-1c and its target genes (C57BL/6J mice [6]; [11]): prevented the induction
- LXR agonist induction of liver weight and serum TGs (C57BL/6J mice [6]; coadministration of 0.5% CA with T0901317): completely prevented
- CO2 production and O2 consumption (C57BL/6J mice [7]; high fat diet containing CA vs high fat or normal diet): higher
- respiratory quotient (RQ=VCO2/VO2) (C57BL/6J mice [7]; high fat diet supplemented with CA): not affected
- hepatotoxicity (humans): significant hepatotoxicity
